Experimental findings from US11219221B2 (FarmHannong Co., Ltd., priority 2017, dated 2022) are described below.

What all share (assay type): biochemical
Test [1] deals with Spirulina subsalsa PPO CyPPO16 (SEQ ID NO: 1) variant A162L (MBP fusion). Kind of test: PPO enzyme inhibition (IC50), MBP-fused PPO. As to conditions: 50 μM protoporphyrinogen IX, pH 8.0, room temperature, 30 min. Here is the method:
(§1) Thus, PPO proteins of wild type and variants were expressed as fused to MBP and were used for experiments.
(§2) The following process for purification of PPO protein was performed in a 4° C. cold room. Amylose resin (NEB) was packed to 1.5×15 cm column (Bio-Rad, Econo Columns 1.5×15 cm, glass chromatography column, max. vol), and the obtained protein extracts were loaded to the column at a flow rate of 0.2 ml/min. The column was washed with 3 column volumes of buffer and the presence of protein in the washing solution was examined. When the protein was no longer detected, the washing procedure was terminated. Then, the MBP-PPO protein was eluted with approximately 2 column volumes of buffer containing 20 mM maltose. The protein concentration of each eluent was determined and the elution was stopped when the protein was no longer detected. Ten microliter of each fraction was investigated for protein quantification and SDS-PAGE analysis. The highly pure fractions of PPO protein variants were used for the enzyme assay.
(§3) Since protoporphyrinogen IX, a substrate of PPO protein, was not commercially available, it was chemically synthesized in the laboratory. Overall process was performed in dark under nitrogen stream. […] of protoporphyrin IX was dissolved in 20 ml of 20% (v/v) EtOH, and stirred under dark condition for 30 minutes. The obtained protoporphyrin IX solution was put into a 15 ml screw tube in an amount of 800 μl, and flushed with nitrogen gas for 5 minutes. To this, 1.5 g of sodium amalgam was added and vigorously shaken for 2 minutes. The lid was opened to exhaust hydrogen gas in the tube. Thereafter, the lid was closed and incubated for 3 minutes. The protoporphyrinogen IX solution was filtered using syringe and cellulose membrane filter. […] To determine the enzyme activity of PPO protein, a reaction mixture was prepared with the following composition (based on 10 ml): 50 mM Tris-Cl (pH 8.0); 50 mM NaCl; 0.04% (v/v) Tween 20; 40 mM glucose (0.072 g); 5 units glucose oxidase (16.6 mg); and 10 units catalase (1 μl).
(§4) Hundred and eighty microliters of a reaction mixture containing the purified PPO protein were placed in 96 well plates and 20 μl of […] were added. […] The reaction proceeded at room temperature for 30 min and the fluorescence of protoporphyrin IX was measured using Microplate reader (Sense, Hidex) (excitation: 405 nm; emission: 633 nm). […] To this, 2.7 N HCl was added, and the absorbance at 408 nm was measured. A standard curve was generated using standard protoporphyrin IX, and PPO activity was measured by calibration of protoporphyrin IX using the standard curve of protoporphyrin IX.

Test [2] concerns the target Spirulina subsalsa PPO CyPPO16 (SEQ ID NO: 1) variant L327T (MBP fusion). The test can be described thus: PPO enzyme inhibition (IC50), MBP-fused PPO. As to conditions: 50 μM protoporphyrinogen IX, pH 8.0, room temperature, 30 min. The protocol: as §1, §2, §3, §4
Test [3] addresses Spirulina subsalsa PPO CyPPO16 (SEQ ID NO: 1) variant R85A (MBP fusion). The test can be described thus: PPO enzyme inhibition (IC50), MBP-fused PPO. As to conditions: 50 μM protoporphyrinogen IX, pH 8.0, room temperature, 30 min. Here is the method: as §1, §2, §3, §4
Test [4] has as its target Spirulina subsalsa PPO CyPPO16 (SEQ ID NO: 1) variant V160C (MBP fusion). Kind of test: PPO enzyme inhibition (IC50), MBP-fused PPO. The settings on record: 50 μM protoporphyrinogen IX, pH 8.0, room temperature, 30 min. Here is the method:
as §1, §2, §3, §4

The target of test [5] is Spirulina subsalsa PPO CyPPO16 (SEQ ID NO: 1) variant V305M (MBP fusion). The test can be described thus: PPO enzyme inhibition (IC50), MBP-fused PPO. The settings on record: 50 μM protoporphyrinogen IX, pH 8.0, room temperature, 30 min. Here is the method: as §1, §2, §3, §4
The target of test [6] is Spirulina subsalsa PPO CyPPO16, wild type, SEQ ID NO: 1 (MBP fusion). Kind of test: PPO enzyme inhibition (IC50), MBP-fused PPO. The settings on record: 50 μM protoporphyrinogen IX, pH 8.0, room temperature, 30 min. Here is the method: as §1, §2, §3, §4
For test [7], the system named is Spirulina subsalsa PPO CyPPO16, wild type, SEQ ID NO: 1. The test can be described thus: PPO enzyme kinetics (Vmax). The settings on record: substrate protoporphyrinogen IX. The protocol: as §1
as §3, with “Overall” for “Since protoporphyrinogen IX, a substrate of PPO protein, was not commercially available, it was chemically synthesized in the laboratory. Overall”, “minutes.” for “minutes. The protoporphyrinogen IX solution was filtered using syringe and cellulose membrane filter.”
as §4
(§5) Meanwhile, the maximal velocity (Vmax) values of each enzyme were determined in order to evaluate the kinetic characteristics of CyPPO16 and CyPPO17. The initial reaction velocity was measured where the reaction velocity was proportional to concentration by varying the substrate concentration. The amount of produced protoporphyrin IX, the enzyme reaction product, was measured by time course at room temperature for 20 minutes. Vmax values were calculated with the enzyme kinetics analysis program by Michaelis-Menten equation.

Test [8] deals with Thermosynechococcus sp. NK55a PPO CyPPO17, wild type, SEQ ID NO: 3. Kind of test: PPO enzyme kinetics (Vmax). As to conditions: substrate protoporphyrinogen IX. The protocol:
as §1
as §3, with “Overall” for “Since protoporphyrinogen IX, a substrate of PPO protein, was not commercially available, it was chemically synthesized in the laboratory. Overall”, “minutes.” for “minutes. The protoporphyrinogen IX solution was filtered using syringe and cellulose membrane filter.”
as §4, §5

Setting [9] is: room temperature, 20 min time course, Michaelis-Menten.

Consider `C#CCN1C(=O)COc2cc(F)c(N3C(=O)C4=C(CCCC4)C3=O)cc21` [flumioxazin], for which the half-inhibitory concentration (IC50) (in general, the concentration that gives 50% inhibition) in test [1] turned out to be 578 nM; in test [2], 780 nM; in test [3], 59 nM; in test [4], 57 nM; in test [5], 38 nM; in test [6] it was 14 nM.

Regarding `C=Cc1c2[nH]c(c1C)Cc1[nH]c(c(CCC(=O)O)c1C)Cc1[nH]c(c(C)c1CCC(=O)O)Cc1[nH]c(c(C)c1C=C)C2` [protoporphyrinogen IX], the “Vmax compared with AtPPO1” value in test [7] and in test [8] was “more than two times higher” throughout. The Vmax was 336 nmole mg protein^−1 min^−1 in test [7] (setting [9]) and 378 nmole mg protein^−1 min^−1 in test [8] (setting [9]).
